Source: patent US20250243219A1, “MACROCYCLIC COMPOUNDS AND USES THEREOF” (Cypralis Limited, priority 2022, published 2025)

Tests used:
[1] = system: permeabilised HepG2 cells; assay: Calcium retention capacity (CRC) assay in permeabilised HepG2 cells (MPTP opening); format: cell-based, human; design: CRC [10 μM]: unit not given here; settings: compound at 10 μM; for CRC [10 μM]: digitonin permeabilised HepG2 cells; for CRC [10 μM] (ratio vs CsA): normalised to cyclosporin A, value in brackets
Method: The use of permeabilised cells means that inhibitory compounds that may not normally enter non-permeabilised cells are more likely to be active.
The calcium retention capacity (CRC) is a measure of the capability of mitochondria to retain calcium, primarily in the form of calcium phosphates, in the mitochondrial matrix.
In a CRC assay, the calcium indicator Calcium Green-5N (InVitrogen) is utilized. […] The assay is carried out in HepG2 (human hepatocellular carcinoma) cells which are digitonin permeabilized. Trains of calcium pulses (typically 5 μM additions) are added which results in a sudden increase in fluorescence which is then reduced by mitochondrial buffering. The cells will reach a point at which the calcium addition is no longer buffered, an indication that the MPTP has opened (mitochondrial permeability transition).
The experiment is performed with and without inhibitor. A compound that acts to inhibit the mitochondrial pore opening will result in a greater requirement for calcium to reach the transition point. The results are normalised to a positive control (cyclosporin A) in each experiment. The results are shown in column 3 of Table 5 as CRC [10 μM] (ratio vs CsA). The method of digitonin permeabilised whole cell CRC assay is similar to that used by Chiara et al. (PLoS One, March, 3, 3, e1852 (2008)).

[2] = target: cyclophilin D (Homo sapiens (Human), UniProt P30405); assay: Functional peptidyl prolyl isomerase (PPIase) spectrophotometric assay, cyclophilin D; format: biochemical; settings: second value of CypA/D cell; read-out: Ki CypD
Source text: (§1) Cyclophilins are enzymes that catalyse the cis-trans isomerisation of peptide bonds to the amino acid proline. This event is important in many biological processes, including protein folding and signal transduction. […] The method to measure this activity and its inhibition is similar to that described by Jankowski (Analytical Biochemistry, 252, 2, 299-307 (1997)). The assay measures the cis to trans isomerisation of a peptide substrate catalysed by a PPlase enzyme using a UV/Vis spectrophotometer. This assay is a manual single cuvette-based assay. A first order rate equation is fitted to the absorbance data to obtain a rate constant. The catalytic rate is calculated from the enzymatic rate minus the background rate. The Ki (the concentration required to produce half maximum inhibition) for an inhibitor is obtained from the rate constant plotted against the inhibitor concentration. Typically, a 6-point dose response curve is obtained from duplicates and a Ki determined. Data are given in Table 5 as Ki [nM] for cyclophilins A and D, expressed in column 2 of Table 5 as Ki (cypA)/Ki (cypD).

[3] = system: SH-SY5Y cells; assay: Thapsigargin treated cell death assay in SH-SY5Y cells; format: cell-based, human; settings: compound at 10 μM, positive = protection from cell death, negative = compound toxicity
Source text: Thapsigargin raises intracellular free calcium (Ca^2+) by potently inhibiting the endoplasmic reticulum Ca-ATPase, which sequesters Ca^2+ from the cytosol. The increased cytosolic Ca^2+ concentration is buffered by mitochondria by exchanging Ca^2+ for K, leading to depolarisation in the inner mitochondrial membrane and permeability transition.
The thapsigargin treated Jurkat cell death assay is a homogeneous 96 well plate based assay for cell death, instigated by the opening of the mitochondrial permeability transition pore (MPTP). The addition of thapsigargin to Jurkat cells results in an influx of calcium, the increase in intracellular calcium will initially be buffered by the mitochondria, but eventually the increasing calcium concentration will result in the opening of the MPTP, resulting in cell death.
CellTox™ Green is a dye which is unable to enter the cell until cell death leads to the loss of membrane integrity. Once this happens the CellTox™ Green enters the cell, binds to the cell's DNA and emits a fluorescent signal. […] Unless otherwise stated, the assay is typically run using a range of three compound concentrations of 1, 3 and 10 μM in triplicate and is read kinetically over a period of 24 hours. Compounds are added 30 minutes before the addition of thapsigargin. Compound only controls and positive control, cyclosporin A (CsA) (3 and 10 μM) are also included in the assay. Results are typically calculated at the 8 hour time point and the kinetic data is also reported.
The assay is carried out as described for the Jurkat cells but using the SH-SY5Y (human neuroblastoma) cell line instead of Jurkat cells. The results are shown in the fourth column of Table 5 (SY5Y [10 μM]% recovery). Positive numbers indicate protection from cell death, negative numbers indicate compound toxicity.

[4] = target: cyclophilin A (Homo sapiens (Human), UniProt P62937); assay: Functional peptidyl prolyl isomerase (PPIase) spectrophotometric assay, cyclophilin A; format: biochemical; settings: first value of CypA/D cell
Source text: as §1

Sequence of cyclophilin A (P62937 whole entry, species assumed): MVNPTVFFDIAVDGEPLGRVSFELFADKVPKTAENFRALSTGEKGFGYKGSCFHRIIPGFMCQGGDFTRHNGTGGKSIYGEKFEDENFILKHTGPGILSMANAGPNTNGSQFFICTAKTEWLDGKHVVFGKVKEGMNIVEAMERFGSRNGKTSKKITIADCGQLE
Sequence of cyclophilin D (P30405 30-207, species assumed): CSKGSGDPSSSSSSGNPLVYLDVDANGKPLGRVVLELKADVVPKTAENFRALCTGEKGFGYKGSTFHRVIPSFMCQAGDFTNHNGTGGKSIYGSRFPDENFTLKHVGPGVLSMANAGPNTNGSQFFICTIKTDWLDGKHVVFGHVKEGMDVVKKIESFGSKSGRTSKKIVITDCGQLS

C[C@@H]1NC(=O)[C@@H](CC2CCCNC2)OC(=O)C(C)(C)/C=C/c2ccc3ccc(nc3c2)N(C)NC(=O)[C@@H]2CCCN(N2)C1=O (single isomer, unassigned) [Compound (30)]
CRC [10 μM] [1]: 10
CRC [10 μM] (ratio vs CsA) [1]: 0.33
Ki [2]: 450 nM
SYSY [10 μM] % recovery ([3]; listed as 30): 10%

C[C@@H]1NC(=O)[C@@H](CC2CCCNC2)OC(=O)C(C)(C)/C=C/c2ccc3ccc(nc3c2)N(C)NC(=O)[C@@H]2CCCN(N2)C1=O (single isomer, unassigned) [Compound (31)]
CRC [10 μM] [1]: 10
CRC [10 μM] (ratio vs CsA) [1]: 0.33
Ki [4]: 790 nM
Ki [2]: 180 nM
SYSY [10 μM] % recovery ([3]; listed as 31): 12%

C[C@@H]1NC(=O)[C@@H](CC2CCCNC2)OC(=O)C(C)(C)/C=C/c2ccc3ccc(nc3c2)N(C)N(C)C(=O)[C@@H]2CCCN(N2)C1=O (single isomer, unassigned) [Compound (33)]
CRC [10 μM] [1]: 5
CRC [10 μM] (ratio vs CsA) ([1]; listed as 33): 0.2
Ki [4]: 280 nM
Ki [2]: 3800 nM
SYSY [10 μM] % recovery [3]: 9%

CNC(=O)c1ccc(CC2OC(=O)C(C)(C)/C=C/c3ccc4ccc(nc4c3)N(C)NC(=O)[C@@H]3CCCN(N3)C(=O)[C@H](C)NC2=O)cc1 (single isomer, unassigned) [Compound (38)]
CRC [10 μM] ([1]; listed as 38): 7.5
CRC [10 μM] (ratio vs CsA) ([1]; listed as 38): 0.33
Ki [4]: 160 nM
Ki [2]: 190 nM
SYSY [10 μM] % recovery ([3]; listed as 38): 8%

CNC(=O)c1ccc(CC2OC(=O)C(C)(C)/C=C/c3ccc4ccc(nc4c3)N(C)NC(=O)[C@@H]3CCCN(N3)C(=O)[C@H](C)NC2=O)cc1 (single isomer, unassigned) [Compound (39)]
CRC [10 μM] ([1]; listed as 39): 15
CRC [10 μM] (ratio vs CsA) ([1]; listed as 39): 0.67
Ki [4]: 30 nM
Ki [2]: 36 nM
SYSY [10 μM] % recovery ([3]; listed as 39): 0%

C[C@@H]1NC(=O)C(Cc2ccc(C(=O)O)cc2)OC(=O)C(C)(C)/C=C/c2ccc3ccc(nc3c2)N(C)NC(=O)[C@@H]2CCCN(N2)C1=O (single isomer, unassigned) [Compound (40)]
CRC [10 μM] ([1]; listed as 40): 5
CRC [10 μM] (ratio vs CsA) ([1]; listed as 40): 0.33
SYSY [10 μM] % recovery ([3]; listed as 40): 51%

C[C@@H]1NC(=O)C(Cc2ccc(C(=O)O)cc2)OC(=O)C(C)(C)/C=C/c2ccc3ccc(nc3c2)N(C)NC(=O)[C@@H]2CCCN(N2)C1=O (single isomer, unassigned) [Compound (41)]
CRC [10 μM] ([1]; listed as 41): 10
CRC [10 μM] (ratio vs CsA) ([1]; listed as 41): 0.67
Ki [4]: 30 nM
Ki [2]: 220 nM
SYSY [10 μM] % recovery ([3]; listed as 41): 0%

CC(C)[C@H]1OC(=O)C/C=C/c2ccc3ccc(nc3c2)N(C)NC(=O)[C@@H]2CCCN(N2)C(=O)[C@H](C)NC1=O (stereo in doubt) [Compound (1)]
CRC [10 μM] [1]: 35
CRC [10 μM] (ratio vs CsA) [1]: 0.95
Ki [4]: 25 nM
Ki [2]: 54 nM
SYSY [10 μM] % recovery [3]: 8.4%

CC(C)[C@@H]1OC(=O)C(C)(C)/C=C/c2ccc3ccc(nc3c2)N(Cc2ccccc2)NC(=O)[C@@H]2CCCN(N2)C(=O)[C@H](C)NC1=O [Compound (9)]
CRC [10 μM] [1]: 279.4
CRC [10 μM] (ratio vs CsA) [1]: 1
Ki [4]: 1.7 nM
Ki [2]: 4.3 nM
SYSY [10 μM] % recovery [3]: 87.067%

CNC(=O)c1ccc(C[C@@H]2OC(=O)C(C)(C)/C=C/c3ccc4ccc(nc4c3)N(C)N(C)C(=O)[C@@H]3CCCN(N3)C(=O)[C@H](C)NC2=O)cc1 [Compound (12)]
CRC [10 μM] [1]: 15
CRC [10 μM] (ratio vs CsA) [1]: 0.75
Ki [4]: 240 nM
Ki [2]: 49 nM
SYSY [10 μM] % recovery [3]: 25%

COC[C@@]1(C)/C=C/c2ccc3ccc(nc3c2)N(C)NC(=O)[C@@H]2CCCN(N2)C(=O)[C@H](C)NC(=O)[C@H](C(C)C)OC1=O [Compound (13)]
CRC [10 μM] [1]: 35
CRC [10 μM] (ratio vs CsA) [1]: 0.95
Ki [4]: 4.9 nM
Ki [2]: 11 nM
SYSY [10 μM] % recovery [3]: 8.4%

COC[C@]1(C)/C=C/c2ccc3ccc(nc3c2)N(C)NC(=O)[C@@H]2CCCN(N2)C(=O)[C@H](C)NC(=O)[C@H](C(C)C)OC1=O [Compound (14)]
CRC [10 μM] [1]: 40
CRC [10 μM] (ratio vs CsA) [1]: 1.09
Ki [4]: 17 nM
Ki [2]: 25 nM
SYSY [10 μM] % recovery [3]: 9.3%

CC(C)[C@@H]1OC(=O)[C@](C)(Cc2ccccc2)/C=C/c2ccc3ccc(nc3c2)N(C)NC(=O)[C@@H]2CCCN(N2)C(=O)[C@H](C)NC1=O [Compound (16)]
CRC [10 μM] [1]: 25
CRC [10 μM] (ratio vs CsA) [1]: 0.83
Ki [4]: 1.7 nM
Ki [2]: 14 nM
SYSY [10 μM] % recovery [3]: 62%

CC(C)[C@@H]1OC(=O)[C@@](C)(Cc2ccccc2)/C=C/c2ccc3ccc(nc3c2)N(C)NC(=O)[C@@H]2CCCN(N2)C(=O)[C@H](C)NC1=O [Compound (17)]
CRC [10 μM] [1]: 33.3
CRC [10 μM] (ratio vs CsA) [1]: 0.95
Ki [4]: 1.7 nM
Ki [2]: 9 nM
SYSY [10 μM] % recovery [3]: 87.8%

CC(C)[C@@H]1OC(=O)C2(/C=C/c3ccc4ccc(nc4c3)N(C)NC(=O)[C@@H]3CCCN(N3)C(=O)[C@H](C)NC1=O)CCCC2 [Compound (21)]
CRC [10 μM] [1]: 32.5
CRC [10 μM] (ratio vs CsA) [1]: 0.93
Ki [4]: 2.5 nM
Ki [2]: 6.1 nM
SYSY [10 μM] % recovery [3]: 33.8%

CC(C)[C@@H]1NC(=O)C(C)(C)/C=C/c2ccc3ccc(nc3c2)N(C)NC(=O)[C@@H]2CCCN(N2)C(=O)[C@H](C)NC1=O [Compound (22)]
CRC [10 μM] [1]: 25
CRC [10 μM] (ratio vs CsA) [1]: 0.83
Ki [4]: 13 nM
Ki [2]: 27 nM
SYSY [10 μM] % recovery [3]: 4%

CC(C)[C@@H]1CC(=O)C(C)(C)/C=C/c2ccc3ccc(nc3c2)N(C)NC(=O)[C@@H]2CCCN(N2)C(=O)[C@H](C)NC1=O [Compound (25)]
CRC [10 μM] [1]: 20
CRC [10 μM] (ratio vs CsA) [1]: 0.8
Ki [4]: 17.5 nM
Ki [2]: 6.2 nM
SYSY [10 μM] % recovery [3]: 26.2%

C[C@@H]1NC(=O)[C@H](CC2CCCNC2)NC(=O)C(C)(C)/C=C/c2ccc3ccc(nc3c2)N(C)NC(=O)[C@@H]2CCCN(N2)C1=O (some centres unmarked) [Compound (35)]
CRC [10 μM] [1]: 10
CRC [10 μM] (ratio vs CsA) [1]: 0.41
Ki [4]: 1100 nM
Ki [2]: 1100 nM
SYSY [10 μM] % recovery [3]: 37%

C[C@@H]1NC(=O)[C@H](C[C@@H]2CCCN(C)C2)OC(=O)C(C)(C)/C=C/c2ccc3ccc(nc3c2)N(C)NC(=O)[C@@H]2CCCN(N2)C1=O [Compound (36)]
CRC [10 μM] [1]: 7.5
CRC [10 μM] (ratio vs CsA) [1]: 0.42
Ki [4]: 390 nM
Ki [2]: 1400 nM
SYSY [10 μM] % recovery [3]: 19%
